Assay results from patent EP0793481B1, “COSMETIC COMPOSITION CONTAINING HYDROXY ALKANOATE DERIVATIVES” (priority 1993, dated 1995).
Like-named read-outs stand apart in the source and are kept apart here.

How the values were obtained:
[1] = Lactic acid on tape strips from volar forearm after lauryl lactate dispersion; assay type: in vivo, human; set-up: unit not given here; details: 2% by weight dispersion in water, 100 µl
Protocol: This dispersion was tested on the volar forearm of a human volunteer. 100 µl of the dispersion was applied to each of three areas (15cm^2) on the volar forearm, rubbed in and allowed to dry. Ten Desquarne tape strips were taken fropm a fourth, untreated area. After 1 hour ten tape strips were taken from one treated area. Ten tape strips were taken from the other treated areas after 3 and 8 hours respectively. The tape strips taken after 1 hour and 3 hours were stored at room temperature for the rest of the 8 hour period, allowing enzymic hydrolysis.
The amount of lactic acid on each tape strip was determined, by the procedure quoted in Example 1. […] Moreover, this is at all levels, indicating penetration of the lactate ester into the skin where it is hydrolysed.

[2] = Penetration of acyl lactylates: serial tape stripping of skin and lactate assay (Sigma 735-10) of the tapes; details: result in words; 10% by weight solutions, four hours
Protocol: The penetration of acyl lactylate and lactic acid in this manner can be determined by serial tape stripping and by biochemical assay of free lactate from skin cells adhering to the tape.
The methodology employed using pig skin is as follows:
The tape employed in this test is Desquame tape available from Diastron. Following topical application to skin of acyl lactylate, pieces of this tape are applied to the skin and then removed, and skin cells are assayed for lactate using Sigma 735-10 lactate assay kit. Thus, by repeated stripping of the same area of skin the degree of penetration of the topically applied acyl lactylate and its cleavage by epidermal esterases can be determined.
10% by weight solutions of sodium lactate (control) and of five different sodium acyl lactylates having from C8 to C18 acyl chains, were prepared in pH 7.0 Sorenson's phosphate buffer, 5 mM. Seven pieces of full thickness skin, taken from pig ear, were cut to 4 x 4cm and pinned out. 100 µl aliquots of the 6 test solutions were applied to the entire surface of six pieces of skin, the remaining piece of skin was used as a no-treatment control. […]
Each tape was placed in a labelled 1ml tube and 800µl of 5.00mM phosphate buffer, pH 7.00 was added to each tube. […] The buffer reagent mixture from each tube was then transferred to microcuvettes and the absorbtion of the solutions measured at 540nm using a spectrophotometer.

[3] = Measurement of skin conductivity (SKICON 200) as index of skin moisturisation, panel of volunteers; assay type: in vivo, human; details: for mean adjusted SKICON 200 readings: 100mM in buffer (3.0%), 100µl, relative to pretreatment reading
Excerpt: The topical application to skin of hydroxyalkanoate derivatives improves the retention of moisture by the skin and/or increases the level of moisture in the skin to a significant extent. […] An increase in skin conductivity is thus used as an index of increase in skin moisturisation.
This method measures the cumulative effect of applying products to the skin, on the conductivity of the superficial stratum corneum.
It is well established that the conductivity of the skin, as measured by placing the probe of a suitable conductivity meter in contact with the skin, is proportional to the water content of the outermost strata of the epidermis. The measurement of skin conductivity can therefore be used to indicate the ability of a topically applied product to hydrate the epidermis: see D. van Neste, J. Dermatol Sci., 2, p119 - 124, (1991), "Comparative Study of Normal and Rough Human Skin Hydration in vivo: evaluation with four different instruments". The method is widely used and accepted as indicative of product skin moisturisation efficacy.
The device for measuring skin conductivity employed in this test is the SKICON 200, a skin hygrometer available from IBS Co.
A small panel of volunteers, greater than six in number and preferably from 12 to 20, is recruited for the test.
Two sites 3 x 4cm are marked onto each volar forearm at least 6cm from either the wrist or elbow and with a separation of at least 6cm. Each site is treated once a day for five consecutive days with 100µl of a single treatment material. Allocation of material to left or right arm, upper or lower site is varied to avoid site effects. A total of two treatment materials can be used, one site per panellist remaining untreated for the entire five day period.
On the first day of the test, panellists are allowed to equilibrate in a climate controlled environment (20°C 70% RH for 15 minutes with no significant sensory stimuli). Eight conductivity measurements are taken per site using random positions within the test site; these represent the baseline. 100µl of treatment material is then applied and gently rubbed into the test site for each of the three treatment sites. Further four sets of eight readings from the treatment sites are then taken one, two and four hours after application, again using the equilibration period in a climate controlled environment. This procedure is repeated on the following four days.
The effect of each treatment is then assessed using the following method: adjusted effect =(Mean treatment site reading)/(Mean pretreatment site reading) [formula]
This value is calculated for each treatment, for each timepoint on each day of treatment for each panellist, resulting in a final mean value for the adjusted effect for the entire panel also being obtained by calculation.
The following treatments were applied in this test • 1. 5mM Sorensons phosphate buffer pH 7.00 + 2% Nipagin • 2. 100mM Sodium dodecoyl lactylate in buffer (a concentration of 3.0%) • 3. No treatment
The results are shown in the table below which records the mean adjusted SKICON 200 readings (i.e. proportional to initial skin conductivity = moisturisation) at hourly periods up to 4 hours.

[4] = Hydrolysis in skin: thin-layer chromatography of radiolabel extracted from tape strips; assay type: in vitro ADME, pig; details: after six hours; for metabolised at 6 h / remaining at 6 h: pig, ear skin, topical or ocular, mean of three repeats; for metabolised at 6 h: spot of hydrolysis products, read-out: % of total label, peak 1; for remaining at 6 h: spot of the applied compound itself, read-out: % of total label, peak 2
Protocol: In a similar experiment nine tape strips were taken after six hours. The first three strips were incubated in 3ml of phosphate buffer. The next three strips and the final three strips were likewise incubated. After 30 minutes the buffer solutions were spotted onto a thin-layer chromatography plate (bearing silica gel as the stationary phase).
The plate was eluted with 80:20:2 hexane:ether:acetic acid mixture. The spots on the plate were detected and quantified by their emitted radiation. […] The results (mean of three repeats) were:
The results of thin layer chromatography, showing the extent of hydrolysis were: […]

[5] = Deposition of radiolabelled lactylate from diluted detergent composition after rinse-off, scintillation count of tape strips; assay type: in vitro ADME, pig; details: result in words, 0.12M, 100 µl, left for 10 seconds and rinsed off
Protocol: Radiolabelled sodium lauroyl lactylate, as used in Example 2, was incorporated into a detergent composition containing
This solution was diluted with about four times its own volume of water, so that the concentration of sodium lauroyl lactylate was 0.12M.
100 µl quantities of this diluted solution were applied to test pieces of pig ear, left for 10 seconds and rinsed off. Excess water was removed with cotton wool, and nine tape strips were taken. All the tape strips were placed in a vial with phosphate buffer and scintillation fluid. The radiolabel content was measured using a scintillation counter.

CCCCCCCCCCCCOC(=O)C(C)O (centres unmarked) [Lauryl lactate]
amount of lactic acid on each tape strip ([1]; 1 Hour, Tape No 1): 0.289
amount of lactic acid on each tape strip ([1]; 1 Hour, Tape No 2): 0.361
amount of lactic acid on each tape strip ([1]; 1 Hour, Tape No 3): 0.217
amount of lactic acid on each tape strip ([1]; 1 Hour, Tape No 4): 0.124
amount of lactic acid on each tape strip ([1]; 1 Hour, Tape No 5): 0.192
amount of lactic acid on each tape strip ([1]; 1 Hour, Tape No 6): 0.201
amount of lactic acid on each tape strip ([1]; 1 Hour, Tape No 7): 0.179
amount of lactic acid on each tape strip ([1]; 1 Hour, Tape No 8): 0.177
amount of lactic acid on each tape strip ([1]; 1 Hour, Tape No 9): 0.211
amount of lactic acid on each tape strip ([1]; 1 Hour, Tape No 10): 0.169
amount of lactic acid on each tape strip ([1]; 3 Hours, Tape No 1): 0.282
amount of lactic acid on each tape strip ([1]; 3 Hours, Tape No 2): 0.250
amount of lactic acid on each tape strip ([1]; 3 Hours, Tape No 3): 0.252
amount of lactic acid on each tape strip ([1]; 3 Hours, Tape No 4): 0.262
amount of lactic acid on each tape strip ([1]; 3 Hours, Tape No 5): 0.485
amount of lactic acid on each tape strip ([1]; 3 Hours, Tape No 6): 0.487
amount of lactic acid on each tape strip ([1]; 3 Hours, Tape No 7): 0.271
amount of lactic acid on each tape strip ([1]; 3 Hours, Tape No 8): 0.246
amount of lactic acid on each tape strip ([1]; 3 Hours, Tape No 9): 0.254
amount of lactic acid on each tape strip ([1]; 3 Hours, Tape No 10): 0.269
amount of lactic acid on each tape strip ([1]; 8 Hours, Tape No 1): 0.260
amount of lactic acid on each tape strip ([1]; 8 Hours, Tape No 2): 0.210
amount of lactic acid on each tape strip ([1]; 8 Hours, Tape No 3): 0.250
amount of lactic acid on each tape strip ([1]; 8 Hours, Tape No 4): 0.222
amount of lactic acid on each tape strip ([1]; 8 Hours, Tape No 5): 0.259
amount of lactic acid on each tape strip ([1]; 8 Hours, Tape No 6): 0.230
amount of lactic acid on each tape strip ([1]; 8 Hours, Tape No 7): 0.241
amount of lactic acid on each tape strip ([1]; 8 Hours, Tape No 8): 0.234
amount of lactic acid on each tape strip ([1]; 8 Hours, Tape No 9): 0.194
amount of lactic acid on each tape strip ([1]; 8 Hours, Tape No 10): 0.449

CC(O)C(=O)O (centres unmarked) [G, sodium lactate, reference compound]
penetration into the stratum corneum [2]: virtually no penetration occurs

CCCCCCCCCCCC(=O)OC(C)C(=O)O (centres unmarked) [Na Acyl Lactylate, Sodium dodecoyl lactylate]
mean adjusted SKICON 200 readings ([3]; T=0 Hr): 1.00
mean adjusted SKICON 200 readings ([3]; T=1 Hr): 1.27
mean adjusted SKICON 200 readings ([3]; T=2 Hr): 1.30
mean adjusted SKICON 200 readings ([3]; T=4 Hr): 1.31
moisturisation of the skin ([3]; result in words, compared with the buffer alone): significant moisturisation of the skin was achieved

CCCCCCCCCCCC(=O)OC(C)C(=O)O (centres unmarked) [Lauroyl lactylate, Sodium lauroyl lactylate]
metabolised at 6 h ([4]; Tapes 1-3): 13.1%
remaining at 6 h ([4]; Tapes 1-3): 8.9%
metabolised at 6 h ([4]; Tapes 4-6): 35.1%
remaining at 6 h ([4]; Tapes 4-6): 64.9%
metabolised at 6 h ([4]; Tapes 7-9): 45.2%
remaining at 6 h ([4]; Tapes 7-9): 54.8%
hydrolysis in the skin ([4]; result in words): had occurred in each instance and had occurred to the greatest extent with the material which had penetrated furthest into the skin
deposition onto the skin [5]: a small proportion of the radiolabelled lactylate had deposited onto the skin
